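Five concentrations, 48 hours, 96-well plates. TGI: total growth inhibition.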
How the values were obtained:
Assay in all cases: NCI anticancer screen, dose series, 48 h
[1] = tested on: NCI-H522 lung
[2] = tested on: SF-539 CNS
[3] = tested on: A498 renal
[4] = tested on: DU-145 prostate
[5] = tested on: HOP-62 NSCLC
[6] = tested on: HCT-15 colon
[7] = tested on: KM12 colon
[8] = tested on: BT-549 breast
[9] = tested on: M14 melanoma
[10] = tested on: CAKI-1 renal
[11] = tested on: SK-MEL-5 melanoma
[12] = tested on: SK-OV-3 ovarian
[13] = tested on: OVCAR-8 ovarian
[14] = tested on: MCF7 breast
[15] = tested on: SF-295 CNS
[16] = tested on: K-562 leukemia
[17] = tested on: SW-620 colon
[18] = tested on: NCI/ADR-RES ovarian
[19] = tested on: SK-MEL-2 melanoma
[20] = tested on: OVCAR-4 ovarian

| Structure (SMILES) | TGI [1] [µM] | TGI [2] [µM] | TGI [3] [µM] | TGI [4] [µM] | TGI [5] [µM] | TGI [6] [µM] | TGI [7] [µM] | TGI [8] [µM] | TGI [9] [µM] | TGI [10] [µM] | TGI [11] [µM] | TGI [12] [µM] | TGI [13] [µM] | TGI [14] [µM] | TGI [15] [µM] | TGI [16] [µM] | TGI [17] [µM] | TGI [18] [µM] | TGI [19] [µM] | TGI [20] [µM] |
| --- | --- | --- | --- | --- | --- | --- | --- | --- | --- | --- | --- | --- | --- | --- | --- | --- | --- | --- | --- | --- |
| Cc1nn(C(=O)Cc2ccccc2)c2c1C(c1ccc(Cl)cc1)SC(N)=N2 (stereo unspecified) | > 100 | > 100 | > 100 | > 100 | > 100 | > 100 | > 100 | > 100 | > 100 | > 100 | > 100 | > 100 | > 100 | > 100 | > 100 | > 100 | > 100 | – | – | – |
| COC1=CC2C(c3cc4ccccc4n3S(=O)(=O)c3ccccc3)CC1CN2C(=O)OCc1ccccc1 (stereo unspecified) | 52.9 | – | – | > 100 | > 100 | > 100 | > 100 | 75.1 | 51.2 | > 100 | 58.9 | 98.1 | > 100 | > 100 | > 100 | 76.5 | > 100 | > 100 | 54.2 | > 100 |
| C/C(=N/NC(=S)Nc1ccc(Cl)cc1)c1cccc(/C(C)=N\NC(=S)Nc2ccc(Cl)cc2)n1 | 27 | 10.6 | 79.5 | 65.5 | 45 | > 100 | > 100 | – | 8.53 | 39.4 | 18.6 | > 100 | 8.69 | 9.25 | 29.6 | 45 | > 100 | 91.3 | 49.2 | > 100 |
| CNC(=S)N=Nc1c(O)n(CN2CCOCC2)c2ccc([N+](=O)[O-])cc12 | – | 33.1 | 66.8 | 27.3 | 28.2 | 26.6 | 97.9 | – | > 100 | 64.1 | > 100 | 31.9 | – | 42.9 | 53.4 | > 100 | > 100 | 38 | 21.2 | 31.2 |
| Cc1cc(C)c2c(c1)C/C(=C\c1ccccc1C(=O)O)C2=O | > 100 | > 100 | > 100 | > 100 | > 100 | > 100 | > 100 | 97.8 | > 100 | > 100 | > 100 | – | > 100 | > 100 | > 100 | > 100 | > 100 | – | – | > 100 |
| O=[N+]([O-])/C(C(Cl)=C(Cl)Cl)=C(/Nc1ccccc1)SCc1ccccc1 | 47.1 | 38.8 | 46.7 | 59.4 | 36.1 | 29.7 | 32.5 | – | 30.6 | 68.7 | 37 | > 100 | 34.8 | – | 90 | 49.9 | 49 | 31.1 | 44.7 | 66.8 |

— PubChem BioAssay (NCI)
